Test results reported in US20090036821A1 (priority 2005, published 2009).
Counter-ions that a name gives are not always drawn. Like-named read-outs stand apart in the source and are kept apart here.

Experiments:
[1] = Conductivity of donor solution; format: physicochemical
[2] = for Lagtime / Flux: iontophoresis (ITP), donor pH 5.5, 50 mM HEPES; for Flux: steady state when current is present, 0.5 mA/sq.cm; for Flux of nicotine, iontophoresis of salt versus passive permeation of nicotine base / Lagtime during iontophoresis versus passive permeation of nicotine base: iontophoresis at pH 5.5 versus passive base pH 8, FIG. 8; for Iontophoretic flux of nicotine versus passive delivery of nicotine base: 500 mM citrate buffer with 50 mM NaCl, current terminated after 4 hours, FIG. 3; for Flux of nicotine after termination of current: current terminated at 4 hrs, 50 mM HEPES, FIG. 6
Procedure: The following methodology was employed in the examples described herein: Dermatomed human skin stored at −80° C. was thawed just prior to use. Each permeation experiment consisted of four replicates. The skin for each replicate was obtained from a different donor so that the variation was randomized. Skin was mounted on Valia-Chien (horizontal) diffusion cells for these in vitro permeation studies, with stratum corneum side facing the donor side. The receptor compartment was filled with pH 7.4 phosphate buffer (50 mM). […] Prior to use, both donor and receptor solutions were degassed by helium sparging. The temperature of the water bath was set to 32° C. Both donor and receptor compartments were continuously stirred. For iontophoresis, silver wire was used as the anode in the donor compartment and silver/silver chloride as cathode in the receptor compartment. A current of 0.5 mA/sq.cm was applied for 4 hours. Samples taken periodically from the receptor compartment were analyzed by HPLC assay. An Xterra RP18 column was used and the detection wavelength was 261 nm. The mobile phase was 85:15 buffer:acetonitrile, pumped at 1 mL/min and retention time was about 3 minutes.
Iontophoretic current was terminated after 4 hours.
Iontophoretic delivery of nicotinium dihydrochloride salt was also studied in 50 mM HEPES buffer, adjusted to pH 5.5 with NaOH.
The flux is calculated at steady state when current is present for the iontophoresis experiments.

[3] = donor solution for iontophoresis, donor pH 5.5, 50 mM HEPES

Compound | Conductivity [1, 3] [mS/cm] | Lagtime [2] [min] | Flux [2] [mg/cm^2-hr] | also measured
CN1CCCC1c1cccnc1 (centres unmarked) [Base, nicotine] | – | – | – | Passive transport of nicotine, pH 8 versus pH 5.5 (non-ionized form at pH 8 compared to monocationic form at pH 5.5): higher at pH 8; Lagtime (passive permeation, donor pH 8): 87 min; Flux (passive permeation, donor pH 8, 1% nicotine, human skin): 0.1053 mg/cm^2-hr; Conductivity ([1]; donor solution for passive permeation, donor pH 8): 4.73 mS/cm; Nicotine permeation, iontophoresis versus passive delivery ([2]; both conditions evaluated (pH 5.5 and pH 8 buffers), FIGS. 1 and 2): Iontophoresis enhanced nicotine permeation compared to passive nicotine delivery
CN1CCCC1c1cccnc1.O=S(=O)(O)O.O=S(=O)(O)O (centres unmarked) [SO4] | 20 | 46 | 0.2554 | –
CN1CCCC1c1cccnc1.O=C(O)CC(O)(CC(=O)O)C(=O)O [Citrate, nicotine citrate] | 13.3 | 9 | 0.332 | Flux of nicotine, iontophoresis of salt versus passive permeation of nicotine base [2]: increased; Lagtime during iontophoresis versus passive permeation of nicotine base [2]: reduced
nicotine hemisulfate | – | – | – | Iontophoretic flux of nicotine versus passive delivery of nicotine base [2]: less than the flux from the passive delivery of nicotine base at pH 8
Br.Br.CN1CCCC1c1cccnc1 (centres unmarked) [HBr] | 25.9 | 63 | 0.2771 | –
CN1CCCC1c1cccnc1.O=C(O)/C=C\C(=O)O (centres unmarked) [Maleate, nicotine maleate] | 9.31 | 4 | 0.2867 | Flux of nicotine, iontophoresis of salt versus passive permeation of nicotine base [2]: increased; Lagtime during iontophoresis versus passive permeation of nicotine base [2]: reduced
CN1CCC[C@H]1c1cccnc1 [HCl, nicotinium dihydrochloride] | 15.4 | 22 | 0.2236 | Conductivity of donor solution ([1]; in 50 mM HEPES buffer, pH 5.5): 15400 μmhos/cm; Flux of nicotine after termination of current [2]: decreased sharply
CN1CCCC1c1cccnc1.O=C(O)C(O)C(O)C(=O)O (centres unmarked) [Bitartrate, nicotine bitartrate] | 16.3 | 10 | 0.2073 | Conductivity of donor solution ([1]; in 50 mM HEPES buffer, pH 5.5): 16300 μmhos/cm; Conductivity of donor solution ([1]; in 500 mM citrate buffer): 66400 μmhos/cm; Iontophoretic flux of nicotine versus passive delivery of nicotine base [2]: less than the flux from the passive delivery of nicotine base at pH 8; Flux of nicotine after termination of current [2]: decreased sharply; Flux of nicotine, 50 mM HEPES buffer versus 500 mM citrate buffer ([2]; iontophoresis, 50 mM HEPES buffer pH 5.5): higher than the nicotine flux from a 500 mM citrate buffer
